For experiment [1] the following is noted: after 7 days, binding curve before reported; cited from earlier work.
Experiment [2] deals with human breast cancer MDA-MB-231 cell line. In kind it is cell-based. As to conditions: 0-200 μM. On the procedure:
(§1) Cell Culture Methods. Media with DMEM, 5% FBS, and 1% Pen-Strep were used to incubate MDA-MB-231 cells at 37° C. with 5% CO2. The osteoblast hFOB 1.19 cell line was incubated at 34° C., 5% CO2, in 1:1 DMEM:F-12 supplemented with 0.3 mg/mL G418, and 10% FBS. Cell passages were performed weekly at 80.0% confluency. Media exchanges were carried out twice every 7 d.
(§2) Cell treatment. […] Cells (MDA-MB-231, hFOB 1.19) were seeded in 96 well plates at a density of 2.5×10^5 cells/mL. The 96 well plates were incubated at 37° C. with 5% CO2 for 24 h. Three 96 well plates were prepared per time point (24, 48, and 72 h). […] Cells were incubated at 37° C. and 5% CO2 for 24, 48, and 72 h. Control groups were treated with media (MDA-MB-231 with DMEM, 1% Pen-Strep) and (hFOB 1.19 with 1:1 DMEM:F-12, 0.3 mg/mL G418). Cell proliferation was determined after each point time of treatment. A 10% AlamarBlue® solution was previously prepared using PBS. The media was removed from all 96 well plates and 100 μL of AlamarBlue® solution was added. The 96 well plates were incubated for 4 h (MDA-MB-231 at 37° C., 5% CO2) and (hFOB 1.19 at 34° C., 5% CO2). The fluorescence was measured at 560 nm of excitation and lambda max 590 nm of emission. […] The experiments for the % RCL were performed employing the same conditions previously mentioned for the IC50 determination. All experiments were accomplished in triplicate. The GraphPad Prism 8 vs 8.3.1 was utilized to generate the IC50 curves and to plot the % RCL graphs.
(§3) Furthermore, the cytotoxicity of these materials was also achieved using the osteoblast-like hFOB 1.19 cell line, within work, these immortalized human cells were used to simulate the human bone microenvironment (not cancerous cells). […] Control groups were treated with media (DMEM, 1% Pen-Strep, MDA-MB-231) and (1:1 DMEM:F12, 0.3 mg/mL G418, hFOB 1.19), respectively. AlamarBlue® assay was employed to determine cell proliferation after each time point.
(§4) Cell Culture Methods—Media with DMEM, 5% FBS, and 1% Pen-Strep were used to incubate MDA-MB-231 cells at 37° C. with 5% CO2. The osteoblast hFOB 1.19 cell line was incubated at 34° C., 5% CO2 in 1:1 DMEM:F-12 supplemented with 0.3 mg/mL G418, and 10% FBS. Cell passages were performed weekly at 80.0% confluency. Media exchanges were carried out twice every 7 d.
(§5) Cell seeding—Both cells were seeded in 96 well plates at a density of 2.5×10^5 cells/mL. The 96 well plates were incubated at 37° C. (MDA-MB-231) and 34° C. […] Experiments were performed in triplicate.
(§6) (MDA-MB-231) and 34° C. […] All experiments were accomplished in triplicate.

In experiment [3] the test system is normal osteoblast-like hFOB 1.19 cell line. Format: cell-based. As to conditions: 0-200 μM. As to the method:
as §1, §2, §3, §4, §5, §6

Experiment [4] can be described thus: Binding assay to hydroxyapatite (HA). As to conditions: 0.5 mg/mL, 20 mg HA, PBS. On the procedure: Hydroxyapatite (HA) treatment. […] The experiment was carried out for 0-12 days, in stirring at 120 rpm. […] The supernatant was centrifuged for 8 min (500 rcf) and the absorbance was measured at 231 nm. Solid samples were characterized by SEM-EDS, TGA, and PXRD.
The experiment was carried out for 0-12 days, in constant stirring at 120 rpm. […] The supernatant was centrifuged for 8 min (500 rcf) and the absorbance was measured at 231 nm. Solid samples were characterized by SEM-EDS and PXRD.

Like-named read-outs stand apart in the source and are kept apart here. Some results are limits rather than exact numbers.

Data on two molecules can be found in patent US11713331B2, “Benzene 1,4-bis(bisphosphonic acid)-based metal complexes, method of synthesis and applications thereof” (priority 2020, dated 2023).

With `NCCCC(O)(P(=O)(O)O)P(=O)(O)O` [ALEN, Alendronic acid], the “% Binding to HA” value in experiment [1] is listed as greater than 95%.

As for “benzene 1,4-bis(bisphosphonic acid) [BBPA]”, the 50% inhibitory concentration (IC50) in experiment [2] (MDA-MB-231, 24 h of treatment) was greater than 200 µM; in experiment [2] (MDA-MB-231, 48 h of treatment) it was greater than 200 µM; in experiment [2] (MDA-MB-231, 72 h of treatment) it was greater than 200 µM; in experiment [3] (hFOB 1.19, 24 h of treatment), greater than 200 µM; in experiment [3] (hFOB 1.19, 48 h of treatment) it was greater than 200 µM; in experiment [3] (hFOB 1.19, 72 h of treatment), greater than 200 µM. Also, the “% Binding to HA” value came to 0% in experiment [4] (0 d); 1% in experiment [4] (1 d); 39% in experiment [4] (2 d); 54% in experiment [4] (3 d); 74% in experiment [4] (4 d).
